The results in this text go back to paper PMC10777851, “SMT-738: a novel small-molecule inhibitor of bacterial lipoprotein transport targeting Enterobacteriaceae” (Antimicrobial Agents and Chemotherapy, 2023).

Some results are limits rather than exact numbers.

The subject of one data set is K. pneumoniae NCTC 13438. Put plainly: Time-kill experiment, K. pneumoniae. The format is cell-based, Klebsiella pneumoniae. As to conditions: 2× and 4× the MIC. On the procedure: An overnight culture of the test strain was diluted to a viable cell density of ~10^6 CFU/mL and dispensed into 96-well plates containing dilutions of SMT-738 to yield the specified multiple of the MIC. Plates were sealed with a breathable seal and incubated under shaking conditions in a humid incubator at 37°C. At specific timepoints (t = 0, 1, 2, 4, 6, 8, and 24 h), samples were taken and plated onto MH agar plates, and colonies enumerated after overnight growth at 37°C. Viable cell numbers as log10 (CFU/mL) were then plotted against time. Where no colonies were detected, the limit of detection was 100 CFU/mL. Compound activity was scored as bactericidal if the viable cell count decreased by at least 3 log10 from the initial count.

In data set [1] the test system is anaerobic gut commensals such as Actinomyces sp., Bacteroides sp., Clostridioides sp., Bifidobacterium sp., Peptostreptococcus sp., and Veillonella sp. Put plainly: MIC, panel of 100 bacterial species: anaerobic gut commensals. The format is cell-based. The procedure: MIC tests were performed by broth microdilution in-line with CLSI susceptibility testing standards ([20], [21]) either in-house or at IHMA (Europe and USA) or JMI Laboratories using cation-adjusted Mueller Hinton Broth.

Another data set relates to HepG2 cells. Put plainly: Seahorse mitochondrial functional assay. It counts as cell-based. Conditions: top concentration of 500 µM (= 196.85 µg/mL). On the procedure:
The Seahorse mitochondrial functional assay was performed by Cyprotex, UK. HepG2 cells were dosed with test compound, and in real time, the extracellular oxygen levels and pH were measured using the Xfe96 flux analyzer (Seahorse Biosciences). Simultaneously, oxygen consumption rate and extracellular acidification rate were measured to determine its effect on oxidative phosphorylation.

For orientation: MIC means the lowest concentration found to suppress growth. A low value points to greater potency. Take `Cc1cnccc1-c1[nH]c(N)nc1-c1ccc2c(c1)N(C(=O)C(C)(C)N)CCO2` [SMT-738]: in the data set on K. pneumoniae NCTC 13438, the “bacterial burden following 24-h exposure” value is “below the limit of detection” and the “timepoint at which bactericidal activity was observed” value is listed as 4 h. Besides, the MIC in data set [1] was more than 128 mg/L. In addition, in the data set with HepG2 cells, the mitotoxicity result is reported as “No toxicity was observed”.
